# Reference: PMC546277 (Arthritis Research & Therapy, 2004)
# Target: IGFBP-3 (recombinant human IGF-binding protein 3, rhIGFBP-3) (Homo sapiens, UniProt P17936)
# Sequence (P17936 28-291): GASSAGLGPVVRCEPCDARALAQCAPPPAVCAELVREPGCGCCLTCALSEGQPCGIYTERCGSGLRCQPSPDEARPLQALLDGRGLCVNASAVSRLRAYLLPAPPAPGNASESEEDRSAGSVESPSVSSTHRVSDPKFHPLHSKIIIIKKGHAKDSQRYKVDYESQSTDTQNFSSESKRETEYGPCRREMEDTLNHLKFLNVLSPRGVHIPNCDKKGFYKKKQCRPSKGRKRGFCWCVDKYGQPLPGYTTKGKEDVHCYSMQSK
# Sequence (P05019 49-118 partner): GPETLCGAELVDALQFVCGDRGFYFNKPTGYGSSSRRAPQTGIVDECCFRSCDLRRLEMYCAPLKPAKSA
smiles,measurement,value
"O=C(O)c1cc2cc(O)c(O)cc2c(C(=O)c2ccc(O)c(O)c2)n1 [NBI-31772, 1-(3,4-dihydroxybenzoyl)-3-hydroxycarbonyl-6,7-dihydroxyisoquinoline]",IC50,2 nM
